Laboratory results as given in patent publication US20060286032A1, “A radiosotope-chitosan complex for treatment of prostate cancer” (priority 2003, published 2006).
Marks after values point to notes of the source that are not given here.

Experiments:
[1] = Autoradiography, complex solution versus ^166Ho(NO3)3.5H2O solution not containing chitosan, injected into the prostate gland; assay type: in vivo, rats; settings: for Radioactive concentration, Administration site / Radioactive concentration, End region of femur / Radioactive concentration, Liver / Radioactive concentration, Spine / Radioactive concentration, Spleen / Radioactive concentration, Kidney: 25 μl (about 100 μCi); for Radioactivity retained in the administration site, the prostate gland: 24 hrs after being administered
Description: To investigate advantages of the ^166Ho-chitosan complex, autoradiography was carried out for a group administered with the complex solution and a control group administered with a ^166Ho(NO3)3.5H2O solution not containing chitosan. In the complex solution administration group, 25 μl of the complex solution was administered, which was equal to about 100 μCi. The control group was administered with a ^166Ho(NO3)3.5H2O solution not containing chitosan with the same dosage and radioactive concentration as in the complex solution administration group. This test was carried out according to the same method as in Experimental Example 1, and each test drug was administered to the prostate gland. After 0.5, 2, 6 and 24 hrs, rats were sacrificed and evaluated by autoradiography. The measured radioactive concentrations (% ID/g) in various organs after injection of the complex solution and the ^166Ho(NO3)3.5H2O solution are given in Table 2, below.

[2] = test system: AIT prostate carcinoma cells; assay: Antitumor effect in orthotopic tumor model, AIT transplanted into the prostate gland; assay type: in vivo, noble rats; settings: non-radioactive complex group
Description: In addition to the subcutaneous tumor model tested in Experimental Example 6, the antitumor effect and side effects of the complex solution was examined in an orthotopic tumor model where AIT prostate carcinoma cells had been directly transplanted into the prostate gland. AIT cells were cultured in 10% FBS-containing DMEM at 37° under 5% CO2. The cultured carcinoma cells were suspended in sterile physiological saline at a density of 2×10^6 cells/0.05 ml. After noble rats were anesthetized with fentanyl and the abdomen was opened, 2×10^6 cells per rat were transplanted into the prostate gland of the rats. Seven days after carcinoma transplantation, the rats were randomly allocated. The kit prepared in Example 2 was used as a test drug, and 0.05 ml of the kit was administered. The rats were divided into four groups: a control group (no treatment); two administration groups administered with 0.5 mCi and 1.0 mCi of the complex solution; and another administration group administered with a non-radioactive complex solution (Holmium-165 (^165Ho)-chitosan complex solution). Two and four weeks after administration of the complex solution, the rats were sacrificed, and tumors were excised from the rats and weighed.

[3] = test system: AIT carcinoma (androgen-independent carcinoma cell line); assay: Antitumor effect in AIT subcutaneous tumor model; assay type: in vivo, noble rats; settings: non-radioactive complex group; for Tumor growth inhibition rate: four weeks, tumor weight vs control
Description: To evaluate the effect of the complex on hormone-independent prostate cancer, an AIT carcinoma (androgen-independent carcinoma cell line) was transplanted into noble rats, and the antitumor effect of the complex was examined.
An androgen-independent, prostate carcinoma cell line, AIT, which is derived from noble rats, was cultured in 10% FBS-containing DMEM at 37° under 5% CO2. The cultured carcinoma cells were suspended in sterile physiological saline at a density of 4×10^6 cells/ml, and 2×10^6 cells were subcutaneously transplanted into the lateral abdomen of male 5-week noble rats. When the long axis of the tumor was about 1 cm long (in this test, 14 days after transplantation), the rats were grouped according to the tumor mass. The kit prepared in Example 2 was used as a test drug, and was administered at the same dose as in Experimental Example 5, that is, 0.2 ml. The rats were divided into four groups: a control group (no treatment); two administration groups administered with the complex solution at 10 mCi and 20 mCi per 1 cm^3 tumor; and another administration group administered with a non-radioactive complex solution (Holmium-165 (^165Ho)-chitosan complex solution). Four weeks after administration with the complex solution, tumors were excised from the rats, and tumor growth inhibition rates were measured by weighing the tumors.

[4] = Histopathological examination of organs of rats of the orthotopic model (hematoxylin and eosin); assay type: in vivo, noble rats; settings: last day of the test
Source text: From all rats tested in Experimental Example 7, which were sacrificed on the last day of the test, the heart, lung, liver, kidney, spleen, testes, epididymis, seminal vesicle, bladder, rectum and tumor tissues were excised, embedded in paraffin according to general tissue processing, and sectioned into a thickness of 3 μm. The tissue sections were subjected to double staining with hematoxylin and eosin and histopathologically examined.

[5] = test system: DU-145 carcinoma cell line (hormone-independent prostate carcinoma cell line); assay: Antitumor effect in DU-145 subcutaneous tumor model, intratumoral injection; assay type: in vivo, nude mice; settings: for Tumor volume after injection / Tumor growth inhibition rate: non-radioactive complex group; for Tumor volume after injection: 0.2 ml intratumoral; for Tumor growth inhibition rate: last day of the test (2 wks), tumor volume vs control
Description: To investigate the effect of the complex on hormone-independent prostate cancer, a DU-145 carcinoma cell line (hormone-independent prostate carcinoma cell line), which is rarely produces prostate-specific antigen, was transplanted into nude mice and the antitumor effect of the complex was evaluated.
The DU-145 cells were cultured in 10% FBS (fetal bovine serum)-containing F-12K(Kaign's Modification of Ham's F-12 medium) in a 5% CO2 incubator at 37° C., and 2×10^5 cells/0.2 ml/head were subcutaneously transplanted into the lumbar portion of male 6-week nude mice. When the long axis of the tumor was about 1 cm long, the complex solution was intratumorally injected. The administration volume of the test drug was 0.2 ml. The mice were divided into four groups: a control group (no treatment); two administration groups administered with the complex solution at doses of 10 mCi and 20 mCi per 1 cm^3 tumor; and another administration group administered with a non-radioactive complex solution [Holmium-165 (^165Ho)-chitosan complex solution]. Two weeks after administration with the complex solution, the mice were histopathologically examined to evaluate the antitumor effect and toxicity to major organs of the complex.

[6] = listed as non-radioactive complex solution

O.O.O.O.O.O=[N+]([O-])[O-].O=[N+]([O-])[O-].O=[N+]([O-])[O-].[166Ho+3] [^166Ho, ^166Ho(NO3)3.5H2O]
Radioactive concentration, Administration site ([1]; 30 min): 4532 ± 513.4 % ID/g | Radioactive concentration, End region of femur ([1]; 30 min): 0.02^b % ID/g | Radioactive concentration, Liver ([1]; 30 min): 0.02 ± 0.011 % ID/g | Radioactive concentration, Spine ([1]; 30 min): 0.01^b % ID/g | Radioactive concentration, Administration site ([1]; 2 hrs): 4404 ± 1806.8 % ID/g | Radioactive concentration, End region of femur ([1]; 2 hrs): 0.11 ± 0.104 % ID/g | Radioactive concentration, Liver ([1]; 2 hrs): 0.04 ± 0.024 % ID/g | Radioactive concentration, Spine ([1]; 2 hrs): 0.03 ± 0.030 % ID/g | Radioactive concentration, Spleen ([1]; 2 hrs): 0.03 ± 0.009 % ID/g | Radioactive concentration, Administration site ([1]; 6 hrs): 2197 ± 1334.3 % ID/g | Radioactive concentration, End region of femur ([1]; 6 hrs): 0.32 ± 0.068 % ID/g | Radioactive concentration, Kidney ([1]; 6 hrs): 0.03 ± 0.008 % ID/g | Radioactive concentration, Liver ([1]; 6 hrs): 0.12 ± 0.022 % ID/g | Radioactive concentration, Spine ([1]; 6 hrs): 0.07 ± 0.010 % ID/g | Radioactive concentration, Spleen ([1]; 6 hrs): 0.07 ± 0.006 % ID/g | Radioactive concentration, Administration site ([1]; 24 hrs): 1067 ± 941.8 % ID/g | Radioactive concentration, End region of femur ([1]; 24 hrs): 1.74 ± 0.424 % ID/g | Radioactive concentration, Kidney ([1]; 24 hrs): 0.07 ± 0.025 % ID/g | Radioactive concentration, Liver ([1]; 24 hrs): 0.18 ± 0.150 % ID/g | Radioactive concentration, Spine ([1]; 24 hrs): 0.45 ± 0.123 % ID/g | Radioactive concentration, Spleen ([1]; 24 hrs): 0.11 ± 0.073 % ID/g | Radioactivity retained in the administration site, the prostate gland ([1]; listed as 166Ho(NO3)3.5H2O solution): about 30% | Radioactivity retained in the administration site, the prostate gland ([1]; listed as radioisotope solution not containing chitosan): 30% | Radioactive concentration in liver, spleen, kidney and end region of the femur, fold higher than in the complex solution group ([1]; after 6 and 24 hrs): 2 to 4 fold | Radioactive concentration in the administration site, fold lower than in the complex solution group ([1]; after 6 hrs): 2 fold | Radioactive concentration in the administration site, fold lower than in the complex solution group ([1]; after 24 hrs): 3 fold

Holmium-165 (^165Ho)-chitosan complex [Non-radioactive complex, reference compound]
Tumor weight ([2]; 2 wks after administration): 1.93 ± 0.29 g | Tumor weight ([2]; 4 wks after administration): 32.62 ± 2.32 g | Tumor weight ([3]; four weeks after administration): 18.1 ± 4.37 g | Tumor growth inhibition rate [3]: 20.4% | Tumor growth inhibition rate [3, 6]: about 20% | Histopathological changes in organs other than the tumor tissue (heart, lung, liver, kidney, spleen, testes, epididymis, seminal vesicle, bladder, rectum) [4]: no abnormalities in adjacent organs were found | Change in tumor volume ([5]; last day of the test): greatly increased | Tumor volume after injection ([5]; 1 wk): 1.24 ± 0.61 cm^3 | Tumor volume after injection ([5]; 2 wks): 5.03 ± 1.51 cm^3 | Tumor growth inhibition rate [5]: 23.1% | Tumor growth inhibition rate [5, 6]: about 20%
